{
  "source": "patent US20240197687A1",
  "about": "“METHODS OF TREATING NEUROINFLAMMATION AND INHIBITING MONOAMINE OXIDASE-A AND RESTORING/UPREGULATING/INCREASING IL-13 AND AND PGC-1 BY ADMINISTERING ORAL DOSAGE FORM CONTAINING MICRONIZED AND NONMICRONIZED PARTICULATE METAXALONE, ALGINIC ACID AND PROPYLENE GLYCOL ALGINATE” (Primus Pharmaceuticals, Inc., priority 2022, published 2024)",
  "key": {"HMC3 microglial cells [1]": {"tested_on": "HMC3 microglial cells", "assay": "ELISA of cytokines in cell culture supernatants of IL-1β-stimulated HMC3 cells", "assay_type": "cell-based, Human", "details": "metaxalone 10, 20, 40 μg/mL, dose-dependent, p<0.0001 vs. IL-1β", "experimental": "Human microglial HMC3 cell line (CRL-3304) was obtained from ATCC (American Type Culture Collection; Manassas, VA, USA). Cells were cultured in Eagle's minimum essential medium (EMEM) with a supplement of 10% fetal bovine serum (FBS) and 1% antibiotic mixture, and were incubated at 37° C. with 5% of CO2. Both medium and supplements were provided by ATCC (Manassas, VA, USA). Cells were seeded in 6-well plates at a density of 4×10^5 cells/well. A stock solution of metaxalone (Sigma Aldrich, Milan, Italy) was prepared by dissolving metaxalone in DMSO. Sixteen hours after plating (time 0), metaxalone was added at the doses of 10, 20, and 40 μg/mL 1 h following IL-1β stimulation (5 ng/mL; Sigma Aldrich, Milan, Italy). After 6 h cells were harvested for mRNA evaluation. In a separate set of plates, cells were incubated for 24 h before MTT assay to evaluate cell viability. The dose-response curve for IL-1β stimulation can be found at Supplemental FIG. S1. Measurements of Cytokines by Enzyme-Linked Immunosorbent Assay (ELISA). Tumor necrosis factor-alpha (TNF-α), interleukin-6 (IL-6) and interleukin-13 (IL-13) were measured in the cell culture supernatants. The products under investigation were measured using enzyme-linked immunosorbent assay (ELISA) kits (Abcam, Cambridge, UK), in agreement with the instructions reported by the manufacturer. All the samples were evaluated in duplicate and the obtained results were interpolated with the pertinent standard curves. To evaluate the sample, the means of the duplicated sample were used and expressed in pg/mL."}, "MAO-A": {"molecular_target": "T1, MAO-A (Homo sapiens, UniProt P21397)", "T1 construct": "MAO-A was constitutively expressed in microglia cells; endogenous in cells; host or cells: HMC3 human microglial cells", "T1 sequence (P21397 1-527)": "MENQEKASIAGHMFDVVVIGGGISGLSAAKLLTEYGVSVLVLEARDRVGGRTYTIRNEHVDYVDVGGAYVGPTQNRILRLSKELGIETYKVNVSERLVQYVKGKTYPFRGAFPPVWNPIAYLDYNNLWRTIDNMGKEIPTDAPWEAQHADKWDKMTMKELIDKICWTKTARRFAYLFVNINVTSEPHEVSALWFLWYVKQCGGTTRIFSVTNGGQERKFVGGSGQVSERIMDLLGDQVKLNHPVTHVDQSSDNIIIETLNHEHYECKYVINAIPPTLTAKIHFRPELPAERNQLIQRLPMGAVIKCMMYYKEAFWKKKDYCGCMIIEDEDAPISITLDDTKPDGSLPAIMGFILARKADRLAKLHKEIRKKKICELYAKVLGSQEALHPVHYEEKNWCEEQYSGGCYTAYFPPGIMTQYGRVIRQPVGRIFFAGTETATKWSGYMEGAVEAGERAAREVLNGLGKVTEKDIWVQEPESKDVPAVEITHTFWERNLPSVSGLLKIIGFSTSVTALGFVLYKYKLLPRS", "assay": "MAO-A activity assay (MAO-GLO bioluminescent) in IL-1β-stimulated microglial cells", "assay_type": "cell-based", "details": "chemiluminescence assay, metaxalone 10, 20, 40 μg/mL, dose-dependent, p<0.0001 vs. IL-1β", "experimental": "MAO-A Activity Assay. MAO-A activity was evaluated by a two-step bioluminescent assay methodology, as previously described (See, Lin, Y. C. et al., MAO-A novel decision maker of apoptosis and autophagy in hormone refractory neuroendocrine prostate cancer cells. Sci. Rep. 2017, 7, 46338) using a MAO-GLO™ assay kit from Promega (Madison, WI, USA). The produced amount of signal (light intensity) was measured using a microplate luminometer (Multilabel Counter Victor3™, PerkinElmer Life Sciences). Human recombinant MAO-A enzyme was used as a positive control. The results are given as relative light units after the background was subtracted."}, "HMC3 cells": {"tested_on": "HMC3 cells", "assay": "Malonaldehyde (MDA) assay, lipid peroxidation in HMC3 cells", "assay_type": "cell-based, Human", "details": "IL-1β-stimulated HMC3 cells; metaxalone 10, 20, 40 μg/mL; p<0.0001 vs. IL-1β", "description": "Malonaldehyde Assay. Metaxalone antioxidant effects were examined in HMC3 cells by measuring malonaldehyde (MDA) levels as a marker of lipid peroxidation, as previously described in detail. (See, Ceravolo, I. Et al., Health Potential of Aloe vera against Oxidative Stress Induced Corneal Damage: An “In Vitro” Study. Antioxidants 2021, 10, 318)."}, "HMC3 microglial cells [2]": {"tested_on": "HMC3 microglial cells"}, "[3]": {"molecular_target": "T2, monoamine oxidase A (MAO-A) (Homo sapiens, UniProt P21397)", "T2 sequence (P21397 1-527)": "T1 sequence (P21397 1-527)", "details": "cited from earlier work"}},
  "data": [
    {"molecule": "Cc1cc(C)cc(OCC2CNC(=O)O2)c1", "note": "(stereo not shown) [metaxalone, 5-[(3,5-dimethylphenoxy)methyl]-2-oxazolidinone]", "values": [
      {"measurement": "IL-6 protein levels", "setting": "HMC3 microglial cells [1]; supernatant of IL-1β-stimulated HMC3 cells (IL-6 increased by IL-1β)", "value": "significantly reverted"},
      {"measurement": "IL-13 protein levels", "setting": "HMC3 microglial cells [1]; supernatant of IL-1β-stimulated HMC3 cells (IL-13 decreased by IL-1β)", "value": "significantly reverted"},
      {"measurement": "TNF-α protein levels", "setting": "HMC3 microglial cells [1]; supernatant of IL-1β-stimulated HMC3 cells (TNF-α increased by IL-1β)", "value": "significantly reverted"},
      {"measurement": "MAO-A activity", "setting": "MAO-A", "value": "suppressed"},
      {"measurement": "MDA levels", "setting": "HMC3 cells", "value": "significant reduction"},
      {"measurement": "cell viability (MTT)", "setting": "HMC3 microglial cells [2]", "value": "did not produce any toxic effect"},
      {"measurement": "MAO-A inhibition", "setting": "[3]", "value": "reported to inhibit"}
    ]}
  ]
}
